Assay [1] concerns the target Sodium-dependent dopamine transporter (Homo sapiens, UniProt Q01959). The experiment in a line: Displacement of [125I]RTI55 from cloned human DAT expressed in HEK293 cells. It counts as cell-based. For orientation: Displacement assays read how much labelled ligand stays bound in the presence of the test substance.
The target of assay [2] is Sodium-dependent serotonin transporter (Homo sapiens, UniProt P31645). In words: biochemical. In kind it is cell-based, HEK293.
The target in assay [3] is Sodium-dependent noradrenaline transporter (Homo sapiens, UniProt P23975). The experiment in a line: Displacement of [125I]RTI55 from cloned human NET expressed in HEK293 cells. It counts as cell-based.
The test system of assay [4] is Mus musculus. The experiment in a line: Antidepressant activity in ip dosed mouse assessed as stimulation of locomotor activity. In kind it is functional.
The test system of assay [5] is Mus musculus. The experiment in a line: Antidepressant activity in ip dosed mouse assessed as stimulation of locomotor activity relative to cocaine. In kind it is functional.
In assay [6] the test system is Mus musculus. In words: Antidepressant activity in ip dosed mouse assessed as time to reach peak stimulation of locomotor activity. It counts as functional.
The subject of assay [7] is Mus musculus. The experiment in a line: Antidepressant activity in ip dosed mouse assessed as duration of locomotor activity. It counts as functional.
The subject of assay [8] is Rattus norvegicus. The experiment in a line: Effect on behavioural activity in ip dosed rat assessed as cocaine-induced lever response pretreated with cocaine by drug-discrimination studies. In kind it is functional.
The subject of assay [9] is Rattus norvegicus. The experiment in a line: Effect on behavioural activity in rat assessed as cocaine-induced lever response at 2.5 mg/kg, po pretreated with cocaine for 45 mins by drug-discrimination studies. In kind it is functional.
Assay [10] concerns Rattus norvegicus. The experiment in a line: Effect on behavioural activity in rat assessed as cocaine-induced lever response at 2.5 mg/kg, po pretreated with cocaine for 90 mins by drug-discrimination studies. In kind it is functional.
Assay [11] relates to Rattus norvegicus. The experiment in a line: Effect on behavioural activity in rat assessed as cocaine-induced lever response at 2.5 mg/kg, po pretreated with cocaine for 180 mins by drug-discrimination studies. In kind it is functional.
The test system of assay [12] is Rattus norvegicus. In words: Effect on behavioural activity in rat assessed as cocaine-induced lever response at 2.5 mg/kg, po pretreated with cocaine for 360 mins by drug-discrimination studies. In kind it is functional.
The test system of assay [13] is Rattus norvegicus. In words: Effect on behavioural activity in rat assessed as cocaine-induced lever response at 5 mg/kg, po pretreated with cocaine for 45 mins by drug-discrimination studies. In kind it is functional.
In assay [14] the test system is Rattus norvegicus. In words: Effect on behavioural activity in rat assessed as cocaine-induced lever response at 5 mg/kg, po pretreated with cocaine for 180 mins by drug-discrimination studies. In kind it is functional.
Assay [15] has as its system Rattus norvegicus. The experiment in a line: Effect on behavioural activity in rat assessed as cocaine-induced lever response at 5 mg/kg, po pretreated with cocaine for 360 mins by drug-discrimination studies. It counts as functional.
For assay [16], the system named is Rattus norvegicus. The experiment in a line: Effect on behavioural activity in rat assessed as cocaine-induced lever response at 10 mg/kg, po pretreated with cocaine for 90 mins by drug-discrimination studies. In kind it is functional.
The test system of assay [17] is Rattus norvegicus. In words: Effect on behavioural activity in rat assessed as cocaine-induced lever response at 10 mg/kg, po pretreated with cocaine for 180 mins by drug-discrimination studies. It counts as functional.
Assay [18] has as its system Rattus norvegicus. In words: Effect on behavioural activity in rat assessed as cocaine-induced lever response at 10 mg/kg, po pretreated with cocaine for 360 mins by drug-discrimination studies. In kind it is functional.
Assay [19] has as its system Rattus norvegicus. In words: Effect on behavioural activity in rat assessed as cocaine-induced lever response at 2.5 mg/kg, ip pretreated with cocaine for 15 mins by drug-discrimination studies. It counts as functional. Particulars: route intraperitoneal.
The test system of assay [20] is Rattus norvegicus. In words: Effect on behavioural activity in rat assessed as cocaine-induced lever response at 5 mg/kg, ip pretreated with cocaine for 15 mins by drug-discrimination studies. In kind it is functional. Conditions: route intraperitoneal.
The test system of assay [21] is Rattus norvegicus. The experiment in a line: Effect on behavioural activity in rat assessed as cocaine-induced lever response at 10 mg/kg, ip pretreated with cocaine for 15 mins by drug-discrimination studies. In kind it is functional. Conditions: route intraperitoneal.
The test system of assay [22] is Rattus norvegicus. In words: Effect on behavioural activity in rat assessed as cocaine-induced lever response at 25 mg/kg, ip pretreated with cocaine for 15 mins by drug-discrimination studies. In kind it is functional. Conditions: route intraperitoneal.
In assay [23] the test system is Rattus norvegicus. In words: Effect on behavioural activity in po dosed rat assessed as cocaine-induced lever response pretreated with cocaine by drug-discrimination studies. In kind it is functional.

These results are taken from ChEMBL document CHEMBL1156106 (J Med Chem, 2009).

pKi: −log10 of the molar value.

Sequence of Sodium-dependent serotonin transporter (P31645 whole entry): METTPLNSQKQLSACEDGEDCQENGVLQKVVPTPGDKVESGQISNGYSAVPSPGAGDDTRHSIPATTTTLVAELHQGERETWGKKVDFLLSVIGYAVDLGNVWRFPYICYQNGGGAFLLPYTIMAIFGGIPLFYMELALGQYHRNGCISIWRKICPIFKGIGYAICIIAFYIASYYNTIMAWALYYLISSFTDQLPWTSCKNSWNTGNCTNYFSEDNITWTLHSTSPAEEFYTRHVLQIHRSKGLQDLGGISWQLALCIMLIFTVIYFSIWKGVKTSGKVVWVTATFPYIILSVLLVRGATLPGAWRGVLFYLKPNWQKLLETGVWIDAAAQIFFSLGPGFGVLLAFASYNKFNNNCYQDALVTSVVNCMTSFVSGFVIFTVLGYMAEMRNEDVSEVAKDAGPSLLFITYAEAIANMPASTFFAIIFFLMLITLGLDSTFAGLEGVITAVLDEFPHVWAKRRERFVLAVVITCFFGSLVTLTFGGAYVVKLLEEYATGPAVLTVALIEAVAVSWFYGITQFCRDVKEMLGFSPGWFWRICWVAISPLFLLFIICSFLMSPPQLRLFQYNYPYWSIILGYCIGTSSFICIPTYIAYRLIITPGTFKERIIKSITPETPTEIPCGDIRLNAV
Sequence of Sodium-dependent dopamine transporter (Q01959 whole entry): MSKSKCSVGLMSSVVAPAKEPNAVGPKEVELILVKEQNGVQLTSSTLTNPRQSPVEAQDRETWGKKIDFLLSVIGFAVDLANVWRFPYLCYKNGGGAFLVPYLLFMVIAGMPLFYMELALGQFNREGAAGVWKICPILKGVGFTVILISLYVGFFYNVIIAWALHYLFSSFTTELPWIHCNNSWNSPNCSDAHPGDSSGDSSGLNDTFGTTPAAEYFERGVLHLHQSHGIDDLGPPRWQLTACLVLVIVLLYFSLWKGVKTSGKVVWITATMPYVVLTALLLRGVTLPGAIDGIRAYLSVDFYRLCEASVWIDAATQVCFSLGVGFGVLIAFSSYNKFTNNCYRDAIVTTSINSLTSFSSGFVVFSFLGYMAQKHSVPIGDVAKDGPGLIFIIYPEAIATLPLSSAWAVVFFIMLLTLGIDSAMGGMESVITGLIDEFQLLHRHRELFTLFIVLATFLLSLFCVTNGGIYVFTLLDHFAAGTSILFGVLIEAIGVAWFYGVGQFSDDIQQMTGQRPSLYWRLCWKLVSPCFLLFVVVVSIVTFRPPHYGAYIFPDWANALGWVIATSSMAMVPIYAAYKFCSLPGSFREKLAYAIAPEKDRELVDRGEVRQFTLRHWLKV
Sequence of Sodium-dependent noradrenaline transporter (P23975 whole entry): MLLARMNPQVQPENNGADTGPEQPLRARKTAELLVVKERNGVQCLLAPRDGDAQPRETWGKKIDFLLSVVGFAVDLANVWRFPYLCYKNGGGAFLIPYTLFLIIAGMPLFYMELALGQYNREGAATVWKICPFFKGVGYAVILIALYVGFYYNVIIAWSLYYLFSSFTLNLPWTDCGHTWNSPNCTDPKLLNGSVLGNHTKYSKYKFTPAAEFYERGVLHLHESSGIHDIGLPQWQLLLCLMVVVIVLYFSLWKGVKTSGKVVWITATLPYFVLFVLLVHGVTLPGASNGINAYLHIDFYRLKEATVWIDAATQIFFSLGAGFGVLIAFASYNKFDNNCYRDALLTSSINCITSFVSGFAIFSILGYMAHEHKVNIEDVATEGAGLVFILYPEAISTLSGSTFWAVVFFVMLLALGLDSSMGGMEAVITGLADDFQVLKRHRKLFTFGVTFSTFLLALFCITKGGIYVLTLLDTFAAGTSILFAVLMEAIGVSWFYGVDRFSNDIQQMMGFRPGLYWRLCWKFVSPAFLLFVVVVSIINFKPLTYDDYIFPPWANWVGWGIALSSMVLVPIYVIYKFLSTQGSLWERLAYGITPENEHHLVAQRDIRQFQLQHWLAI

By pKi is commonly meant the negative decadic logarithm of the Ki, by convention in mol/L. A low value points to a high Ki. Consider `CC(NC(C)(C)C)C(=O)c1cccs1` (stereo unspecified), for which the pKi in [1], in assay [2] and in assay [3] was under 5.00 throughout.

One may read the ED50 as the dose at which the effect has come halfway, by size or by number of responders. On to `Cc1ccc(C(=O)C(C)NC(C)(C)C)cc1Cl` (stereo unspecified), for which the ED50 in the assay with Mus musculus [4] is at least 35.5 mg/kg. Also, in the assay on Mus musculus [5], the Activity result is given as “>=77%”. Further, the “Time to peak locomotor stimulation” value with Mus musculus [6] stood at 10 min. Also, the Time with Mus musculus [7] is 60 min.

For `CC(C)(C)NC1CCc2ccc(Cl)cc2C1=O` (stereo unspecified), the negative logarithm of the Ki (pKi) in assay [1], in assay [2] and in assay [3] was under 5.00 throughout. For the same compound, in the assay on Mus musculus [4], the ED50 was determined as 2.6 mg/kg.

Turning to `CC(C(=O)c1cccc(Cl)c1)N(C)C` (stereo unspecified), the ED50 is 5.9 mg/kg in the assay with Rattus norvegicus [8], 9.3 mg/kg in the assay on Mus musculus [4] and 5.3 mg/kg with Rattus norvegicus [23]. The Activity is 19% with Rattus norvegicus [9]; 0% with Rattus norvegicus [10]; 33% with Rattus norvegicus [11]; 0% in the assay with Rattus norvegicus [12]; 38% in the assay with Rattus norvegicus [13]; 0% in the assay on Rattus norvegicus [14]. The Activity in the assay on Rattus norvegicus [15] is 0%; in the assay on Rattus norvegicus [16], 100%; in the assay on Rattus norvegicus [17], 33%; in the assay with Rattus norvegicus [18], 18%; in the assay on Mus musculus [5], 64%; with Rattus norvegicus [19] it was 0%. Further, the Activity is on record as 83.3% in the assay on Rattus norvegicus [20], 83.2% in the assay with Rattus norvegicus [21] and 100% with Rattus norvegicus [22]. Further, the pKi in assay [2] is under 5.00. The “Time to peak locomotor stimulation” value in the assay with Mus musculus [6] came out at 90 min. In the assay on Mus musculus [7], the Time was 180 min.

`Cc1cccc(C(=O)C(C)NC(C)(C)C)c1` (stereo unspecified): the negative logarithm of the Ki (pKi) in assay [2] and in assay [3] was under 5.00 throughout. The Activity in the assay with Mus musculus [5] worked out at 76%. In addition, the “Time to peak locomotor stimulation” value in the assay on Mus musculus [6] was determined as 10 min. Moreover, the Time in the assay on Mus musculus [7] is 50 min.

Consider `CCC(NC(C)(C)C)C(=O)c1cccc(Cl)c1` (stereo unspecified), for which the ED50 is 12.2 mg/kg in the assay on Rattus norvegicus [8] and 18.6 mg/kg in the assay with Mus musculus [4]. The Activity in the assay on Mus musculus [5] is recorded as 62%; with Rattus norvegicus [19], 0.6%; in the assay on Rattus norvegicus [20], 33.4%; in the assay with Rattus norvegicus [22], 100%. In the assay on Mus musculus [6], the “Time to peak locomotor stimulation” value was 0 min. Besides, in the assay on Mus musculus [7], the Time came out at 360 min.

As for `CCCNC(C)C(=O)c1cccc(Cl)c1` (stereo unspecified), the negative logarithm of the Ki (pKi) in assay [1], in assay [2] and in assay [3] was under 5.00 throughout.

As to `CC(CNC(C)(C)C)C(=O)c1cccc(Cl)c1` (stereo unspecified), the pKi in assay [1], in [2] and in assay [3] was under 5.00 each time.
